From patent US20170081286A1, “2-[[[2-[(HYDROXYACETYL)AMINO]-4-PYRIDINYL]METHYL]THIO]-N-[4-(TRIFLUOROMETHOXY)PHENYL]-3-PYRIDINECARBOXAMIDE BENZENESULFONATE, CRYSTAL OF SAME, CRYSTAL POLYMORPH THEREOF, AND METHODS FOR PRODUCTION THEREOF” (Santen Pharmaceutical Co., Ltd., priority 2009, published 2017)

Columns and labels:
[1] = Storage stability test of salts of compound A (1-week preliminary stability test, content by HPLC); type: physicochemical; conditions: for decomposition / decrease in purity on storage (in words): 1-week preliminary stability test (severe test), light, humidity and other factors; for content of salt of compound A after storage, relative to the content before storage of 100%: HPLC
Description: For examining the storage stability for these salts with compound A, a 1-week preliminary stability test (severe test) was executed.
<Storage Stability Tests for Benzenesulfonate, Methanesulfonate and p-Toluenesulfonate of Compound A (1-Week Preliminary Stability Test)>
For benzenesulfonate, methanesulfonate and p-toluenesulfonate of compound A, after storing under the conditions of 40° C. 75% RH, 60° C. or light (1000 lux/hr), the content of each salt of compound A was measured by HPLC. The percentage of change, relative to the content before storage of 100%, was calculated.

[2] = test system: VEGF-induced HUVEC proliferation; conditions: described in PTL 1; cited from earlier work
[3] = test system: rat choroidal neovascularization model; conditions: described in PTL 1; cited from earlier work
[4] = test system: tumor-bearing mouse model; conditions: described in PTL 1; cited from earlier work
[5] = test system: rat adjuvant arthritis model; conditions: described in PTL 1; cited from earlier work
Crl:CD (SD) rat [6] = test: Rat 1-week repeated oral administration toxicity test of compound A (free body), stomach histopathology; type: in vivo; conditions: once a day, 1 week (7 days), 30 mg/kg
Description: 1) Rat 1-week repeated oral administration toxicity test of compound A (free body)
(§1) i) To Crl:CD (SD) rat was orally administered compound A ([…]) suspended in a 1% methylcellulose liquid once a day for 7 days. ii) After completion of the administration, the rat was exsanguinated to death under ether anesthesia, then the stomach was removed, fixed in a 10% neutral buffered formalin aqueous solution, and then stained with hematoxylin-eosin to prepare a specimen, and the change in the stomach was observed histopathologically. 2) Rat 4-week repeated oral administration toxicity test of benzenesulfonate of compound A

Crl:CD (SD) rat [7] = test: Rat 4-week repeated oral administration toxicity test of benzenesulfonate of compound A, stomach histopathology; type: in vivo; conditions: once a day, 4 weeks, 30 mg/kg
Description: as §1
as §1, with “administered benzenesulfonate of” for “administered”, “4 weeks.” for “7 days.”, “histopathologically.” for “histopathologically. 2) Rat 4-week repeated oral administration toxicity test of benzenesulfonate of compound A”

Row | Compound | decomposition / decrease in purity on storage (in words) [1] | content of salt of compound A after storage, relative to the content before storage of 100% ([1]; 40° C. 75% RH/1 week) | content of salt of compound A after storage, relative to the content before storage of 100% ([1]; 60° C./1 week) | content of salt of compound A after storage, relative to the content before storage of 100% ([1]; 1000 lux/hr, 1 week) | cell proliferation inhibiting effect [2] | choroidal neovascularization inhibiting effect [3] | tumor proliferation suppressing effect [4] | paw edema suppressing effect [5] | mineral deposition in the stomach (Crl:CD (SD) rat [6]) | mineral deposition in the stomach (Crl:CD (SD) rat [7])
1 | p-toluenesulfonate | decomposed by humidity | 92.3% | 99.3% | 99.8% | – | – | – | – | – | –
2 | O=C(CO)Nc1cc(CSc2ncccc2C(=O)Nc2ccc(OC(F)(F)F)cc2)ccn1 [compound A, 2-[[[2-[(hydroxyacetyl)amino]-4-pyridinyl]methyl]thio]-N-[4-(trifluoromethoxy)phenyl]-3-pyridinecarboxamide] | – | – | – | – | exhibits a cell proliferation inhibiting effect | exhibits a choroidal neovascularization inhibiting effect | exhibits a tumor proliferation suppressing effect | exhibits a paw edema suppressing effect | observed | –
3 | O=C(CO)Nc1cc(CSc2ncccc2C(=O)Nc2ccc(OC(F)(F)F)cc2)ccn1.O=S(=O)(O)c1ccccc1 [benzenesulfonate of compound A, benzenesulfonate of 2-[[[2-[(hydroxyacetyl)amino]-4-pyridinyl]methyl]thio]-N-[4-(trifluoromethoxy)phenyl]-3-pyridinecarboxamide] | did not show a decrease in purity | 100.0% | 100.0% | 100.0% | – | – | – | – | – | not observed
4 | CS(=O)(=O)O.O=C(CO)Nc1cc(CSc2ncccc2C(=O)Nc2ccc(OC(F)(F)F)cc2)ccn1 [methanesulfonate of compound A] | decomposed by light | 99.8% | 99.9% | 99.1% | – | – | – | – | – | –
